According to patent US20220225639A1, “IMMUNE-STIMULATING COMPOSITIONS FOR AQUACULTURE SPECIES” (MIREXUS BIOTECHNOLOGIES INC., priority 2019, published 2022):

Test system: rainbow trout gut cells (RT-gut)
Test: Uptake and intracellular stability of fluorescently labelled poly IC (fluorescent microscopy)
Format: cell-based
Details: 1 ug/ml, 20 degree treatment, 4 hours
Method: Per Example 7, low molecular weight poly:IC was labelled with a fluorescent dye, then left as “free” poly:IC or coupled with Cat-PhG (0.38) at a 1:1 (w/w) ratio. Free poly:IC or PhG coupled poly:IC was added to RT-gut cells at a concentration of 1 ug/ml and incubated at 4° C. or 20° C. for 4 hours. Cells were imaged via fluorescent microscopy, and average intracellular fluorescence intensity was measured from 5 randomly selected cells.
Low molecular weight poly IC was labelled with the Ulysis AlexaFluor 546 labelling kit (Invitrogen), then left as “free” poly IC or couple with cationic PhG (0.38) at a 1:1 (w/w) ratio. Free poly IC or PhG coupled poly IC was added to RT-gut cells at a concentration of 1 ug/ml and incubated at 4° C. or 20° C. for 4 hours. Cells were imaged via fluorescent microscopy, and average intracellular fluorescence intensity was measured from 5 randomly selected cells.

Q: Which intracellular fluorescence does the source give for “polyinosinic:polycytidylic acid [free poly IC]” here?
A: no fluorescence was detected
